Measured values taken from ChEMBL document CHEMBL6127052, “Discovery of membrane-targeting amphiphilic honokiol derivatives containing an oxazolethione moiety to combat methicillin-resistant Staphylococcus aureus (MRSA) infections” (Eur J Med Chem, 2024).
Converted amounts (≈) assume the structure as drawn.

Key:
[1] = Hemolytic activity in sheep erythrocytes incubated for 1 hr by absorbance based assay; type: toxicity, cell-based, Ovis aries, Erythrocyte
Staphylococcus aureus [2] = assay: Antibacterial activity against methicillin-resistant Staphylococcus aureus clinical isolate M23 by CLSI based micro-broth dilution method; type: functional
Staphylococcus aureus [3] = assay: Antibacterial activity against methicillin-resistant Staphylococcus aureus N315 by CLSI based micro-broth dilution method; type: functional
Staphylococcus aureus [4] = assay: Antibacterial activity against methicillin-resistant Staphylococcus aureus clinical isolate M21 by CLSI based micro-broth dilution method; type: functional
Staphylococcus aureus [5] = assay: Antibacterial activity against methicillin-resistant Staphylococcus aureus clinical isolate M13 by CLSI based micro-broth dilution method; type: functional
Staphylococcus aureus [6] = assay: Antibacterial activity against methicillin-resistant Staphylococcus aureus clinical isolate M14 by CLSI based micro-broth dilution method; type: functional
Staphylococcus aureus [7] = assay: Antibacterial activity against Staphylococcus aureus ATCC 29213 by CLSI based micro-broth dilution method; type: functional
Escherichia coli = assay: Antibacterial activity against Escherichia coli ATCC 25922 by CLSI based micro-broth dilution method; type: functional
Staphylococcus aureus [8] = assay: Antibacterial activity against methicillin-resistant Staphylococcus aureus clinical isolate M17 by CLSI based micro-broth dilution method; type: functional
Staphylococcus aureus [9] = assay: Antibacterial activity against methicillin-resistant Staphylococcus aureus clinical isolate M16 by CLSI based micro-broth dilution method; type: functional
[10] = Selectivity index, ratio of HC50 for hemolytic activity in sheep erythrocytes to MIC for antibacterial activity against Staphylococcus aureus ATCC 29213; type: toxicity, cell-based, RBC
Staphylococcus aureus [11] = assay: Antibacterial activity against methicillin-resistant Staphylococcus aureus clinical isolate M22 by CLSI based micro-broth dilution method; type: functional
Staphylococcus aureus [12] = assay: Antibacterial activity against methicillin-resistant Staphylococcus aureus clinical isolate M20 by CLSI based micro-broth dilution method; type: functional
Staphylococcus aureus [13] = assay: Antibacterial activity against methicillin-resistant Staphylococcus aureus clinical isolate M11 by CLSI based micro-broth dilution method; type: functional
Staphylococcus aureus [14] = assay: Antibacterial activity against methicillin-resistant Staphylococcus aureus clinical isolate M12 by CLSI based micro-broth dilution method; type: functional

C=CCc1cc(-c2ccc(OCCC[N+](C)(C)CC(=O)NCCCC)c(CC=C)c2)c2oc(=S)n(Cc3ccccc3Br)c2c1.[Br-]
HC50 at 1 h [1]: > 160 µg/mL | MIC (Staphylococcus aureus [2]): 64 µg/mL | MIC (Staphylococcus aureus [3]): 128 µg/mL | MIC (Staphylococcus aureus [4]): 32 µg/mL | MIC (Staphylococcus aureus [5]): 128 µg/mL | MIC (Staphylococcus aureus [6]): 128 µg/mL | MIC (Staphylococcus aureus [7]): 128 µg/mL | MIC (Escherichia coli): > 128 µg/mL | MIC (Staphylococcus aureus [8]): 64 µg/mL | MIC (Staphylococcus aureus [9]): 64 µg/mL | selectivity ratio [10]: > 1.3 | MIC (Staphylococcus aureus [11]): 32 µg/mL | MIC (Staphylococcus aureus [12]): 64 µg/mL | MIC (Staphylococcus aureus [13]): 64 µg/mL | MIC (Staphylococcus aureus [14]): 16 µg/mL

C=CCc1cc(-c2ccc(OCCC[N+](C)(C)CC(=O)NCCCC)c(CC=C)c2)c2oc(=S)n(Cc3ccc(Cl)c(F)c3)c2c1.[Br-]
HC50 at 1 h [1]: > 160 µg/mL | MIC (Staphylococcus aureus [2]): 8 µg/mL | MIC (Staphylococcus aureus [3]): 32 µg/mL | MIC (Staphylococcus aureus [4]): 8 µg/mL | MIC (Staphylococcus aureus [5]): 16 µg/mL | MIC (Staphylococcus aureus [6]): 16 µg/mL | MIC (Staphylococcus aureus [7]): 32 µg/mL | MIC (Escherichia coli): > 128 µg/mL | MIC (Staphylococcus aureus [8]): 128 µg/mL | MIC (Staphylococcus aureus [9]): 8 µg/mL | selectivity ratio [10]: > 5 | MIC (Staphylococcus aureus [11]): 64 µg/mL | MIC (Staphylococcus aureus [12]): 8 µg/mL | MIC (Staphylococcus aureus [13]): 8 µg/mL | MIC (Staphylococcus aureus [14]): 8 µg/mL

C=CCc1cc(-c2ccc(OCCC[N+](C)(C)CC(=O)NCCCC)c(CC=C)c2)c2oc(=S)n(Cc3ccc(F)c(F)c3)c2c1.[Br-]
HC50 at 1 h [1]: 68.4 µg/mL | MIC (Staphylococcus aureus [2]): 4 µg/mL | MIC (Staphylococcus aureus [3]): 16 µg/mL | MIC (Staphylococcus aureus [4]): 4 µg/mL | MIC (Staphylococcus aureus [5]): 2 µg/mL | MIC (Staphylococcus aureus [6]): 2 µg/mL | MIC (Staphylococcus aureus [7]): 4 µg/mL | MIC (Escherichia coli): > 128 µg/mL | MIC (Staphylococcus aureus [8]): 4 µg/mL | MIC (Staphylococcus aureus [9]): 4 µg/mL | selectivity ratio [10]: 10.4 | MIC (Staphylococcus aureus [11]): 4 µg/mL | MIC (Staphylococcus aureus [12]): 4 µg/mL | MIC (Staphylococcus aureus [13]): 4 µg/mL | MIC (Staphylococcus aureus [14]): 4 µg/mL

C=CCc1cc(-c2ccc(OCCC[N+](C)(C)CC(=O)NCCCC)c(CC=C)c2)c2oc(=S)n(Cc3ccc(Cl)cc3F)c2c1.[Br-]
HC50 at 1 h [1]: > 160 µg/mL | MIC (Staphylococcus aureus [2]): > 128 µg/mL | MIC (Staphylococcus aureus [3]): 128 µg/mL | MIC (Staphylococcus aureus [4]): > 128 µg/mL | MIC (Staphylococcus aureus [5]): > 128 µg/mL | MIC (Staphylococcus aureus [6]): > 128 µg/mL | MIC (Staphylococcus aureus [7]): > 128 µg/mL | MIC (Escherichia coli): > 128 µg/mL | MIC (Staphylococcus aureus [8]): > 128 µg/mL | MIC (Staphylococcus aureus [9]): > 128 µg/mL | selectivity ratio [10]: 1.3 | MIC (Staphylococcus aureus [11]): > 128 µg/mL | MIC (Staphylococcus aureus [12]): > 128 µg/mL | MIC (Staphylococcus aureus [13]): > 128 µg/mL | MIC (Staphylococcus aureus [14]): > 128 µg/mL

C=CCc1cc(-c2ccc(OCCC[N+](C)(C)CC(=O)NCCCC)c(CC=C)c2)c2oc(=S)n(Cc3ccc(F)c(Cl)c3)c2c1.[Br-]
HC50 at 1 h [1]: > 160 µg/mL | MIC (Staphylococcus aureus [2]): 32 µg/mL | MIC (Staphylococcus aureus [3]): 64 µg/mL | MIC (Staphylococcus aureus [4]): 8 µg/mL | MIC (Staphylococcus aureus [5]): 16 µg/mL | MIC (Staphylococcus aureus [6]): 32 µg/mL | MIC (Staphylococcus aureus [7]): 128 µg/mL | MIC (Escherichia coli): > 128 µg/mL | MIC (Staphylococcus aureus [8]): 16 µg/mL | MIC (Staphylococcus aureus [9]): 16 µg/mL | selectivity ratio [10]: > 1.25 | MIC (Staphylococcus aureus [11]): 32 µg/mL | MIC (Staphylococcus aureus [12]): 16 µg/mL | MIC (Staphylococcus aureus [13]): 16 µg/mL | MIC (Staphylococcus aureus [14]): 8 µg/mL

C=CCc1cc(-c2ccc(OCCC[N+](C)(C)CC(=O)NCCCC)c(CC=C)c2)c2oc(=S)n(Cc3ccccc3Cl)c2c1.[Br-]
HC50 at 1 h [1]: 965 µg/mL | MIC (Staphylococcus aureus [2]): 4 µg/mL | MIC (Staphylococcus aureus [3]): 16 µg/mL | MIC (Staphylococcus aureus [4]): 4 µg/mL | MIC (Staphylococcus aureus [5]): 8 µg/mL | MIC (Staphylococcus aureus [6]): 16 µg/mL | MIC (Staphylococcus aureus [7]): 4 µg/mL | MIC (Escherichia coli): > 128 µg/mL | MIC (Staphylococcus aureus [8]): 16 µg/mL | MIC (Staphylococcus aureus [9]): 4 µg/mL | selectivity ratio [10]: 241 | MIC (Staphylococcus aureus [11]): 8 µg/mL | MIC (Staphylococcus aureus [12]): 8 µg/mL | MIC (Staphylococcus aureus [13]): 4 µg/mL | MIC (Staphylococcus aureus [14]): 4 µg/mL

C=CCc1cc(-c2ccc(OCCC[N+](C)(C)CC(=O)NCCCC)c(CC=C)c2)c2oc(=S)n(Cc3cc(F)c(F)c(F)c3)c2c1.[Br-]
HC50 at 1 h [1]: 52.8 µg/mL | MIC (Staphylococcus aureus [2]): 2 µg/mL | MIC (Staphylococcus aureus [3]): 16 µg/mL | MIC (Staphylococcus aureus [4]): 2 µg/mL | MIC (Staphylococcus aureus [5]): 4 µg/mL | MIC (Staphylococcus aureus [6]): 2 µg/mL | MIC (Staphylococcus aureus [7]): 2 µg/mL | MIC (Escherichia coli): > 128 µg/mL | MIC (Staphylococcus aureus [8]): 4 µg/mL | MIC (Staphylococcus aureus [9]): 2 µg/mL | MIC (Staphylococcus aureus [11]): 4 µg/mL | MIC (Staphylococcus aureus [12]): 2 µg/mL | MIC (Staphylococcus aureus [13]): 2 µg/mL | MIC (Staphylococcus aureus [14]): 2 µg/mL

C[C@@H](O)[C@H]1C(=O)N2C(C(=O)O)=C(S[C@@H]3CN[C@H](C(=O)N(C)C)C3)[C@H](C)[C@H]12 [MEROPENEM]
MIC (Escherichia coli): 0.063 µg/mL (≈ 0.164 µM)
